From patent publication US20260022143A1, “Cyclic Peptide Inhibitors of IL-23” (JANSSEN PHARMACEUTICA NV, priority 2022, published 2026)
Positions of bridges follow the written chain, without caps; N, C: chain ends. Non-standard residues stand in square brackets, D forms with d. Residues, ends and D or L forms follow the SMILES beside them. *: point of attachment. Trp(7-(3-AcNH-Ph)) = CC(=O)Nc1cccc(-c2cccc3c(C[C@H](N)C(=O)O)c[nH]c23)c1; Me3N+(CH2)2O(CH2)2O(CH2)2CO = C[N+](C)(C)CCOCCOCCC(=O)*; Phe(4-guanidino) = N=C(N)Nc1ccc(C[C@H](N)C(=O)O)cc1; Trp(7-Me) = Cc1cccc2c(C[C@H](N)C(=O)O)c[nH]c12; Dab(NMeAc) = CC(=O)N(C)CC[C@H](N)C(=O)O; 2Nal = N[C@@H](Cc1ccc2ccccc2c1)C(=O)O; AEF = NCCOc1ccc(C[C@H](N)C(=O)O)cc1; 3Pal = N[C@@H](Cc1cccnc1)C(=O)O; Cit = NC(=O)NCCC[C@H](N)C(=O)O; Lys(Me) = CNCCCC[C@H](N)C(=O)O; Pen = CC(C)(S)[C@H](N)C(=O)O; X44 = c1cc[n+](CCOCCOCC*)cc1; Thp = NC1(C(=O)O)CCOCC1; X3 = C[N+](C)(C)CCCCC*; Sar = CNCC(=O)O

What was measured:
IL-23R = target: T1, IL-23R (Homo sapiens, UniProt Q5VWK5); assay: IL23R Reporter Assay; format: cell-based; conditions: HEK293 cells containing IL-23R, IL-12RP1 and STAT-inducible firefly luciferase reporter; 10 ng/mL IL-23 (EC90); 5 h at 37° C.; read-out: IL23R Reporter Assay
T1 construct: host or cells: HEK293
T1 sequence (Q5VWK5 24-629): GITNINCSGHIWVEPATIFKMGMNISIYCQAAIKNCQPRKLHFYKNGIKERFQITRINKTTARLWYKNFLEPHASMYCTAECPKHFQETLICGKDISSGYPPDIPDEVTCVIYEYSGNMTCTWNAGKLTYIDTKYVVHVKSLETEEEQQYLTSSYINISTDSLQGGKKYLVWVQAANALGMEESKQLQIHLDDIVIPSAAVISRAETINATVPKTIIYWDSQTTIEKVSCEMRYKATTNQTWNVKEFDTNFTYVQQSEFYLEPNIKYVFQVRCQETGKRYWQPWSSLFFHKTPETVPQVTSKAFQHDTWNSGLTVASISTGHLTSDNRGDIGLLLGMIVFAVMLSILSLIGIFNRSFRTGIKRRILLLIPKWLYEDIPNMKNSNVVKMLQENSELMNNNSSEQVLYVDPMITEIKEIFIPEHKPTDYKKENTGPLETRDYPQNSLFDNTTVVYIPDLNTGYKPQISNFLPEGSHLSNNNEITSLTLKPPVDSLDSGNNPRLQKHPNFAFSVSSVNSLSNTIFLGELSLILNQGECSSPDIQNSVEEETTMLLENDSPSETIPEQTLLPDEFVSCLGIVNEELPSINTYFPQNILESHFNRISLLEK

[1] = Exposed Polar Surface Area (EPSA); format: physicochemical; conditions: SFC on Chirex 3014 column; sample 1 mM DMSO stock; read-out: EPSA
Summary of the method: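 SFC retention on a Chirex 3014 (S)-valine/(R)-1-(α-naphthyl)ethylamine column, 35 °C, CO2 with MeOH (20 mM ammonium formate) gradient 5–60% at 20%/min, 14 MPa outlet. Retention times converted to EPSA (Å^2) via linear calibration with 8 standards; samples from 1 mM DMSO stock, run in duplicate.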

Row | Compound | IC50 (IL-23R) [nM] | EPSA [1] [A^2]
1 | CC(=O)Nc1cccc(-c2cccc3c(C[C@@H]4NC(=O)[C@H]([C@@H](C)O)NC(=O)[C@H](CC(=O)N(C)C)NC(=O)[C@@H](NC(=O)CCOCCOCC[N+](C)(C)C)C(C)(C)SSC(C)(C)[C@@H](C(=O)N[C@@H](Cc5ccc(OCCCCC[N+](C)(C)C)cc5)C(=O)N[C@@H](Cc5ccc6ccccc6c5)C(=O)NC5(C(=O)N[C@@H](CCCCN(C)C(C)=O)C(=O)N[C@@H](CC(N)=O)C(=O)N[C@@H](Cc6cccnc6)C(=O)N(C)CC(=O)N(C)C)CCOCC5)NC(=O)[C@H](CCCCN(C)C(C)=O)NC4=O)c[nH]c23)c1 [compound 294, cPEG3aCO-Pen(3)-N(N(me)2)-T-7(3NAcPh)W-K(NMeAc)-Pen(3)-TMAPF-2Nal-THP-K(NMeAc)-N-3Pya-Sar-CON(Me)2] ({Me3N+(CH2)2O(CH2)2O(CH2)2CO}-[Pen]D(NMe2)T[Trp(7-(3-AcNH-Ph))][Lys(Me)](Ac)[Pen]Y(X3)[2Nal][Thp][Lys(Me)](Ac)N[3Pal][Sar]-NMe2; disulfide 1-6 (inferred)) | 1.2 | 157
2 | CC(=O)N(C)CCCC[C@@H]1NC(=O)[C@H](Cc2c[nH]c3c(C)cccc23)NC(=O)[C@H]([C@@H](C)O)NC(=O)[C@H](CC(=O)N(C)C)NC(=O)[C@@H](NC(=O)CCOCCOCC[N+](C)(C)C)C(C)(C)SSC(C)(C)[C@@H](C(=O)N[C@@H](Cc2ccc(OCCOCCOCC[n+]3ccccc3)cc2)C(=O)N[C@@H](Cc2ccc3ccccc3c2)C(=O)NC2(C(=O)N[C@@H](CCCCN(C)C(C)=O)C(=O)N[C@@H](CC(N)=O)C(=O)N[C@@H](Cc3cccnc3)C(=O)N(C)CC(=O)N(C)C)CCOCC2)NC1=O [compound 297, cPEG3aCO-Pen(3)-N(N(Me)2)-T-7MeW-K(NMeAc)-Pen(3)-NPyPEG3F-2Nal-THP-K(NMeAc)-N-3Pya-Sar-CON(Me)2] ({Me3N+(CH2)2O(CH2)2O(CH2)2CO}-[Pen]D(NMe2)T[Trp(7-Me)][Lys(Me)](Ac)[Pen]Y(X44)[2Nal][Thp][Lys(Me)](Ac)N[3Pal][Sar]-NMe2; disulfide 1-6 (inferred)) | 1.8 | 153
3 | CC(=O)N(C)CCCC[C@@H]1NC(=O)[C@H](Cc2c[nH]c3c(C)cccc23)NC(=O)[C@H]([C@@H](C)O)NC(=O)[C@H](CC(=O)N(C)C)NC(=O)[C@@H](NC(=O)CCOCCOCC[N+](C)(C)C)C(C)(C)SSC(C)(C)[C@@H](C(=O)N[C@@H](Cc2ccc(NC(=N)N)cc2)C(=O)N[C@@H](Cc2ccc3ccccc3c2)C(=O)NC2(C(=O)N[C@@H](CCCCN(C)C(C)=O)C(=O)N[C@@H](CC(N)=O)C(=O)N[C@@H](Cc3cccnc3)C(=O)N(C)CC(=O)N(C)C)CCOCC2)NC1=O [compound 304, cPEG3aCO-Pen(3)-N(N(Me)2)-T-7MeW-K(NMeAc)-Pen(3)-F(4G)-2Nal-THP-K(NMeAc)-N-3Pya-Sar-CON(Me)2] ({Me3N+(CH2)2O(CH2)2O(CH2)2CO}-[Pen]D(NMe2)T[Trp(7-Me)][Lys(Me)](Ac)[Pen][Phe(4-guanidino)][2Nal][Thp][Lys(Me)](Ac)N[3Pal][Sar]-NMe2; disulfide 1-6) | 1.4 | 164
4 | CC(=O)N(C)CCCC[C@@H]1NC(=O)[C@H](Cc2c[nH]c3c(C)cccc23)NC(=O)[C@H]([C@@H](C)O)NC(=O)[C@H](CC(=O)N(C)C)NC(=O)[C@@H](NC(=O)CCOCCOCC[N+](C)(C)C)C(C)(C)SSC(C)(C)[C@@H](C(=O)N[C@@H](Cc2ccc(OCCN)cc2)C(=O)N[C@@H](Cc2ccc3ccccc3c2)C(=O)NC2(C(=O)N[C@@H](CCCCN(C)C(C)=O)C(=O)N[C@@H](CC(N)=O)C(=O)N[C@@H](Cc3cccnc3)C(=O)N(C)CC(=O)N(C)C)CCOCC2)NC1=O [compound 320, cPEG3aCO-Pen(3)-N(N(Me)2)-T-7MeW-K(NMeAc)-Pen(3)-AEF-2Nal-THP-K(NMeAc)-N-3Pya-Sar-CON(Me)2] ({Me3N+(CH2)2O(CH2)2O(CH2)2CO}-[Pen]D(NMe2)T[Trp(7-Me)][Lys(Me)](Ac)[Pen][AEF][2Nal][Thp][Lys(Me)](Ac)N[3Pal][Sar]-NMe2; disulfide 1-6) | 0.95 | 162
5 | CC(=O)N(C)CCCC[C@@H]1NC(=O)[C@H](Cc2c[nH]c3c(C)cccc23)NC(=O)[C@H]([C@@H](C)O)NC(=O)[C@H](CC(=O)N(C)C)NC(=O)[C@@H](NC(=O)CCOCCOCC[N+](C)(C)C)C(C)(C)SSC(C)(C)[C@@H](C(=O)N[C@@H](Cc2ccc(OCCCCC[N+](C)(C)C)cc2)C(=O)N[C@@H](Cc2ccc3ccccc3c2)C(=O)NC2(C(=O)N[C@@H](CCCCN(C)C(C)=O)C(=O)N[C@@H](CC(N)=O)C(=O)N[C@@H](Cc3cccnc3)C(=O)N(C)CC(N)=O)CCOCC2)NC1=O [compound 326, cPEG3aCO-Pen(3)-N(N(Me)2)-T-7MeW-K(NMeAc)-Pen(3)-TMAPF-2Nal-THP-K(NMeAc)-N-3Pya-Sar-CONH2] ({Me3N+(CH2)2O(CH2)2O(CH2)2CO}-[Pen]D(NMe2)T[Trp(7-Me)][Lys(Me)](Ac)[Pen]Y(X3)[2Nal][Thp][Lys(Me)](Ac)N[3Pal][Sar]-NH2; disulfide 1-6) | 0.85 | 157

More lines, now with the values ahead:

Row | IC50 (IL-23R) [nM] | EPSA [1] [A^2] | Compound
6 | 2.1 | 153 | CNC(=O)C[C@@H]1NC(=O)[C@@H](NC(=O)CCOCCOCC[N+](C)(C)C)C(C)(C)SSC(C)(C)[C@@H](C(=O)N[C@@H](Cc2ccc(OCCCCC[N+](C)(C)C)cc2)C(=O)N[C@@H](Cc2ccc3ccccc3c2)C(=O)NC2(C(=O)N[C@@H](CCCCN(C)C(C)=O)C(=O)N[C@@H](CC(N)=O)C(=O)N[C@@H](Cc3cccnc3)C(=O)N(C)CC(=O)N(C)C)CCOCC2)NC(=O)[C@H](CCCCN(C)C(C)=O)NC(=O)[C@H](Cc2c[nH]c3c(C)cccc23)NC(=O)[C@H]([C@@H](C)O)NC1=O [compound 300, cPEG3aCO-Pen(3)-N(N(Me))-T-7MeW-K(NMeAc)-Pen(3)-TMAPF-2Nal-THP-K(NMeAc)-N-3Pya-Sar-CON(Me)2] ({Me3N+(CH2)2O(CH2)2O(CH2)2CO}-[Pen]D(NHMe)T[Trp(7-Me)][Lys(Me)](Ac)[Pen]Y(X3)[2Nal][Thp][Lys(Me)](Ac)N[3Pal][Sar]-NMe2; disulfide 1-6)
7 | 0.73 | 153 | CC(=O)N(C)CCCC[C@@H]1NC(=O)[C@H](Cc2c[nH]c3c(C)cccc23)NC(=O)[C@H]([C@@H](C)O)NC(=O)[C@H](CC(=O)N(C)C)NC(=O)[C@@H](NC(=O)CCOCCOCC[N+](C)(C)C)C(C)(C)SSC(C)(C)[C@@H](C(=O)N[C@@H](Cc2ccc(OCCCCC[N+](C)(C)C)cc2)C(=O)N[C@@H](Cc2ccc3ccccc3c2)C(=O)NC2(C(=O)N[C@@H](CCN(C)C(C)=O)C(=O)N[C@@H](CC(N)=O)C(=O)N[C@@H](Cc3cccnc3)C(=O)N(C)CC(=O)N(C)C)CCOCC2)NC1=O [compound 301, cPEG3aCO-Pen(3)-N(N(Me)2)-T-7MeW-K(NMeAC)-Pen(3)-TMAPF-2Nal-THP-Dab(NMeAc)-N-3Pya-Sar-CON(Me)2] ({Me3N+(CH2)2O(CH2)2O(CH2)2CO}-[Pen]D(NMe2)T[Trp(7-Me)][Lys(Me)](Ac)[Pen]Y(X3)[2Nal][Thp][Dab(NMeAc)]N[3Pal][Sar]-NMe2; disulfide 1-6)
8 | 2 | 154 | CC(=O)NCCCC[C@@H]1NC(=O)[C@H](Cc2c[nH]c3c(C)cccc23)NC(=O)[C@H]([C@@H](C)O)NC(=O)[C@H](CC(=O)N(C)C)NC(=O)[C@@H](NC(=O)CCOCCOCC[N+](C)(C)C)C(C)(C)SSC(C)(C)[C@@H](C(=O)N[C@@H](Cc2ccc(OCCCCC[N+](C)(C)C)cc2)C(=O)N[C@@H](Cc2ccc3ccccc3c2)C(=O)NC2(C(=O)N[C@@H](CCN(C)C(C)=O)C(=O)N[C@@H](CC(N)=O)C(=O)N[C@@H](Cc3cccnc3)C(=O)N(C)CC(=O)N(C)C)CCOCC2)NC1=O [compound 308, cPEG3aCO-Pen(3)-N(N(Me)2)-T-7MeW-K(Ac)-Pen(3)-TMAPF-2Nal-THP-Dab(NMeAc)-N-3Pya-Sar-CON(Me)2] ({Me3N+(CH2)2O(CH2)2O(CH2)2CO}-[Pen]D(NMe2)T[Trp(7-Me)]K(Ac)[Pen]Y(X3)[2Nal][Thp][Dab(NMeAc)]N[3Pal][Sar]-NMe2; disulfide 1-6)
9 | 1.2 | 157 | CC(=O)N(C)CCCC[C@@H]1NC(=O)[C@H](Cc2c[nH]c3c(C)cccc23)NC(=O)[C@H]([C@@H](C)O)NC(=O)[C@H](CC(=O)N(C)C)NC(=O)[C@@H](NC(=O)CCOCCOCC[N+](C)(C)C)C(C)(C)SSC(C)(C)[C@@H](C(=O)N[C@@H](Cc2ccc(OCCCCC[N+](C)(C)C)cc2)C(=O)N[C@@H](Cc2ccc3ccccc3c2)C(=O)NC2(C(=O)N[C@@H](CCCNC(N)=O)C(=O)N[C@@H](CC(N)=O)C(=O)N[C@@H](Cc3cccnc3)C(=O)N(C)CC(=O)N(C)C)CCOCC2)NC1=O [compound 327, cPEG3aCO-Pen(3)-N(N(Me)2)-T-7MeW-K(NMeAc)-Pen(3)-TMAPF-2Nal-THP-Cit-N-3Pya-Sar-CON(Me)2] ({Me3N+(CH2)2O(CH2)2O(CH2)2CO}-[Pen]D(NMe2)T[Trp(7-Me)][Lys(Me)](Ac)[Pen]Y(X3)[2Nal][Thp][Cit]N[3Pal][Sar]-NMe2; disulfide 1-6)
